Assay results as given in ChEMBL document CHEMBL1806455, “Synthesis, activity and pharmacokinetics of novel antibacterial 15-membered ring macrolones” (Eur J Med Chem, 2011).
In brackets after ≈: the same amount, converted by molar mass.

Experiments:
Assay type in all cases: functional
Staphylococcus aureus [1] = experiment: Antibacterial activity against erythromycin-sensitive Staphylococcus aureus ATCC 13709 by broth microdilution method
Streptococcus pneumoniae [2] = experiment: Antibacterial activity against erythromycin-sensitive Streptococcus pneumoniae SP030 by broth microdilution method
Streptococcus pyogenes [3] = experiment: Antibacterial activity against erythromycin-sensitive Streptococcus pyogenes 3565 by broth microdilution method
Staphylococcus aureus [4] = experiment: Antibacterial activity against efflux-mediated macrolide-resistant Staphylococcus aureus PK1 by broth microdilution method
Streptococcus pneumoniae [5] = experiment: Antibacterial activity against efflux-mediated macrolide-resistant Streptococcus pneumoniae Ci137 by broth microdilution method
Streptococcus pyogenes [6] = experiment: Antibacterial activity against efflux-mediated macrolide-resistance Streptococcus pyogenes 2 Finland by broth microdilution method
Staphylococcus aureus [7] = experiment: Antibacterial activity against inducible macrolide-lincosamide-streptogramin B resistant Staphylococcus aureus 90256 by broth microdilution method
Streptococcus pneumoniae [8] = experiment: Antibacterial activity against inducible macrolide-resistant, constitutive lincosamide, streptogramin-resistant Streptococcus pneumoniae 134 GR M by broth microdilution method
Streptococcus pyogenes [9] = experiment: Antibacterial activity against inducible macrolide-lincosamide-streptogramin B resistant Streptococcus pyogenes Finland 11 by broth microdilution method
Staphylococcus aureus [10] = experiment: Antibacterial activity against constitutive macrolide, lincosamide, streptogramin-resistant Staphylococcus aureus PK2 by broth microdilution method
Streptococcus pneumoniae [11] = experiment: Antibacterial activity against constitutive macrolide, lincosamide, streptogramin-resistant Streptococcus pneumoniae 58 spain by broth microdilution method
Streptococcus pyogenes [12] = experiment: Antibacterial activity against macrolide, lincosamide, streptogramin-resistant Streptococcus pyogenes 166 GR-Micro by broth microdilution method
Haemophilus influenzae = experiment: Antibacterial activity against Haemophilus influenzae ATCC 49247 by broth microdilution method
Moraxella catarrhalis = experiment: Antibacterial activity against Moraxella catarrhalis ATCC 23246 by broth microdilution method

SMILES | MIC (Staphylococcus aureus [1]) [µg/mL] | MIC (Streptococcus pneumoniae [2]) [µg/mL] | MIC (Streptococcus pyogenes [3]) [µg/mL] | MIC (Staphylococcus aureus [4]) [µg/mL] | MIC (Streptococcus pneumoniae [5]) [µg/mL] | MIC (Streptococcus pyogenes [6]) [µg/mL] | MIC (Staphylococcus aureus [7]) [µg/mL] | MIC (Streptococcus pneumoniae [8]) [µg/mL] | MIC (Streptococcus pyogenes [9]) [µg/mL] | MIC (Staphylococcus aureus [10]) [µg/mL] | MIC (Streptococcus pneumoniae [11]) [µg/mL] | MIC (Streptococcus pyogenes [12]) [µg/mL] | MIC (Haemophilus influenzae) [µg/mL] | MIC (Moraxella catarrhalis) [µg/mL]
CCCOC(=O)c1cn(C2CC2)c2cc(Cl)c(NCCOCCC(=O)O[C@H]3[C@H](C)O[C@@H](O[C@H]4[C@H](C)[C@@H](O[C@@H]5O[C@H](C)C[C@H](N(C)C)[C@H]5O)[C@](C)(O)C[C@@H](C)CN(C)[C@H](C)[C@@H](O)[C@](C)(O)[C@@H](CC)OC(=O)[C@@H]4C)C[C@@]3(C)OC)cc2c1=O | 1 (≈ 0.856 µM) | ≤ 0.125 | ≤ 0.125 | 1 (≈ 0.856 µM) | ≤ 0.125 | ≤ 0.125 | 1 (≈ 0.856 µM) | ≤ 0.125 | ≤ 0.125 | > 64 | ≤ 0.125 | ≤ 0.125 | 4 (≈ 3.43 µM) | 2 (≈ 1.71 µM)
CC[C@H]1OC(=O)[C@H](C)[C@@H](O[C@H]2C[C@@](C)(OC)[C@@H](OC(=O)CCOCCNc3cc4c(=O)c(C(=O)OC(C)C)cn(C5CC5)c4cc3Cl)[C@H](C)O2)[C@H](C)[C@@H](O[C@@H]2O[C@H](C)C[C@H](N(C)C)[C@H]2O)[C@](C)(O)C[C@@H](C)CN(C)[C@H](C)[C@@H](O)[C@]1(C)O | 0.5 (≈ 0.428 µM) | ≤ 0.125 | ≤ 0.125 | 2 (≈ 1.71 µM) | ≤ 0.125 | ≤ 0.125 | 2 (≈ 1.71 µM) | ≤ 0.125 | ≤ 0.125 | > 64 | ≤ 0.125 | ≤ 0.125 | 2 (≈ 1.71 µM) | 
CC[C@H]1OC(=O)[C@H](C)[C@@H](O[C@H]2C[C@@](C)(OC)[C@@H](OC(=O)CCOCCNc3cc4c(=O)c(C(=O)OCOCCOC)cn(C5CC5)c4cc3Cl)[C@H](C)O2)[C@H](C)[C@@H](O[C@@H]2O[C@H](C)C[C@H](N(C)C)[C@H]2O)[C@](C)(O)C[C@@H](C)CN(C)[C@H](C)[C@@H](O)[C@]1(C)O | 1 (≈ 0.824 µM) | ≤ 0.125 | ≤ 0.125 | 2 (≈ 1.65 µM) | ≤ 0.125 | ≤ 0.125 | 2 (≈ 1.65 µM) | ≤ 0.125 | ≤ 0.125 | > 64 | 0.25 (≈ 0.206 µM) | ≤ 0.125 | 8 (≈ 6.59 µM) | 8 (≈ 6.59 µM)
CC[C@H]1OC(=O)[C@H](C)[C@@H](O[C@H]2C[C@@](C)(OC)[C@@H](OC(=O)CCOCCNc3cc4c(=O)c(C(=O)OCOC(=O)C(C)(C)C)cn(C5CC5)c4cc3Cl)[C@H](C)O2)[C@H](C)[C@@H](O[C@@H]2O[C@H](C)C[C@H](N(C)C)[C@H]2O)[C@](C)(O)C[C@@H](C)CN(C)[C@H](C)[C@@H](O)[C@]1(C)O | 1 (≈ 0.806 µM) | ≤ 0.125 | ≤ 0.125 | 2 (≈ 1.61 µM) | ≤ 0.125 | ≤ 0.125 | 4 (≈ 3.23 µM) | ≤ 0.125 | ≤ 0.125 | > 64 | 0.5 (≈ 0.403 µM) | ≤ 0.125 | 1 (≈ 0.806 µM) | 2 (≈ 1.61 µM)
CC[C@H]1OC(=O)[C@H](C)[C@@H](O[C@H]2C[C@@](C)(OC)[C@@H](OC(=O)CCOCCNc3cc4c(=O)c(C(=O)OCCN5CCCC5)cn(C5CC5)c4cc3Cl)[C@H](C)O2)[C@H](C)[C@@H](O[C@@H]2O[C@H](C)C[C@H](N(C)C)[C@H]2O)[C@](C)(O)C[C@@H](C)CN(C)[C@H](C)[C@@H](O)[C@]1(C)O | 0.25 (≈ 0.204 µM) | ≤ 0.125 | ≤ 0.125 | ≤ 0.125 | ≤ 0.125 | ≤ 0.125 | 1 (≈ 0.818 µM) | ≤ 0.125 | ≤ 0.125 | > 64 | ≤ 0.125 | ≤ 0.125 | 4 (≈ 3.27 µM) | ≤ 0.125
CCCOC(=O)c1cn(C2CC2)c2ccc(NCCOCCC(=O)O[C@H]3[C@H](C)O[C@@H](O[C@H]4[C@H](C)[C@@H](O[C@@H]5O[C@H](C)C[C@H](N(C)C)[C@H]5O)[C@](C)(O)C[C@@H](C)CN(C)[C@H](C)[C@@H](O)[C@](C)(O)[C@@H](CC)OC(=O)[C@@H]4C)C[C@@]3(C)OC)cc2c1=O | 0.5 (≈ 0.441 µM) | ≤ 0.125 | ≤ 0.125 | 2 (≈ 1.76 µM) | ≤ 0.125 | ≤ 0.125 | 4 (≈ 3.53 µM) | ≤ 0.125 | ≤ 0.125 | > 64 | ≤ 0.125 | ≤ 0.125 | 2 (≈ 1.76 µM) | 
